The source of these data is ChEMBL document CHEMBL1817663, “A synthetic antimicrobial peptidomimetic (LTX 109): stereochemical impact on membrane disruption” (J Med Chem, 2011).

≈ marks a conversion by molar mass, not a printed value.

The subject of one series is Staphylococcus aureus. Briefly: Antibacterial activity against Staphylococcus aureus ATCC 25923. Type of series: functional.
A short description of series [1]: Toxicity in human erythrocytes assessed as hemolytic activity. Particulars: read-out: HD50 (the source's name). Type of series: cell-based, Erythrocyte.
In the next series the test system is Pseudomonas aeruginosa. Nature of the series: Antibacterial activity against Pseudomonas aeruginosa ATCC 27853. Type of series: functional.
A further series relates to Escherichia coli. Nature of the series: Antibacterial activity against Escherichia coli ATCC 25922. The format is functional.

Take `CC(C)(C)c1cc(C(C)(C)C)c2[nH]c(C(C)(C)C)c(C[C@H](NC(=O)[C@@H](N)CCCNC(=N)N)C(=O)N[C@@H](CCCNC(=N)N)C(=O)NCCc3ccccc3)c2c1` [LTX-109]: the results for the MIC against Staphylococcus aureus, with Pseudomonas aeruginosa and in the series with Escherichia coli were 2 µg/mL (≈ 2.54 µM), 8 µg/mL (≈ 10.2 µM) and 3 µg/mL (≈ 3.81 µM), respectively. The HC50 in series [1] was 175 µg/mL.

For `CC(C)(C)c1cc(C(C)(C)C)c2[nH]c(C(C)(C)C)c(C[C@H](NC(=O)[C@@H](N)CCCNC(=N)N)C(=O)N[C@H](CCCNC(=N)N)C(=O)NCCc3ccccc3)c2c1`, the MIC against Staphylococcus aureus came to 3 µg/mL (≈ 3.81 µM); with Pseudomonas aeruginosa, 50 µg/mL (≈ 63.4 µM); against Escherichia coli it was 10 µg/mL (≈ 12.7 µM). For the same molecule, the HC50 in series [1] came to 535 µg/mL.

As for `CC(C)(C)c1cc(C(C)(C)C)c2[nH]c(C(C)(C)C)c(C[C@@H](NC(=O)[C@H](N)CCCNC(=N)N)C(=O)N[C@H](CCCNC(=N)N)C(=O)NCCc3ccccc3)c2c1`, the MIC amounted to 3 µg/mL (≈ 3.81 µM) with Staphylococcus aureus, 8 µg/mL (≈ 10.2 µM) with Pseudomonas aeruginosa and 3 µg/mL (≈ 3.81 µM) against Escherichia coli. Further, the HC50 in series [1] was determined as 120 µg/mL.

In the case of `CC(C)(C)c1cc(C(C)(C)C)c2[nH]c(C(C)(C)C)c(C[C@@H](NC(=O)[C@@H](N)CCCNC(=N)N)C(=O)N[C@H](CCCNC(=N)N)C(=O)NCCc3ccccc3)c2c1`, the MIC came out at 2 µg/mL (≈ 2.54 µM) against Staphylococcus aureus, 8 µg/mL (≈ 10.2 µM) in the series with Pseudomonas aeruginosa and 4 µg/mL (≈ 5.08 µM) against Escherichia coli. Further, in series [1], the HC50 was found to be 135 µg/mL.

With `CC(C)(C)c1cc(C(C)(C)C)c2[nH]c(C(C)(C)C)c(C[C@H](NC(=O)[C@H](N)CCCNC(=N)N)C(=O)N[C@@H](CCCNC(=N)N)C(=O)NCCc3ccccc3)c2c1`, the MIC against Staphylococcus aureus stood at 2 µg/mL (≈ 2.54 µM); against Pseudomonas aeruginosa, 10 µg/mL (≈ 12.7 µM); against Escherichia coli, 3 µg/mL (≈ 3.81 µM). Also, the HC50 in series [1] is 175 µg/mL.

As for `CC(C)(C)c1cc(C(C)(C)C)c2[nH]c(C(C)(C)C)c(C[C@@H](NC(=O)[C@@H](N)CCCNC(=N)N)C(=O)N[C@@H](CCCNC(=N)N)C(=O)NCCc3ccccc3)c2c1`, the MIC stood at 3 µg/mL (≈ 3.81 µM) against Staphylococcus aureus, 30 µg/mL (≈ 38.1 µM) with Pseudomonas aeruginosa and 9 µg/mL (≈ 11.4 µM) against Escherichia coli. Besides, in series [1], the HC50 was 510 µg/mL.

On to `CC(C)(C)c1cc(C(C)(C)C)c2[nH]c(C(C)(C)C)c(C[C@H](NC(=O)[C@H](N)CCCNC(=N)N)C(=O)N[C@H](CCCNC(=N)N)C(=O)NCCc3ccccc3)c2c1`, for which the MIC against Staphylococcus aureus came to 3 µg/mL (≈ 3.81 µM); against Pseudomonas aeruginosa it was 50 µg/mL (≈ 63.4 µM); with Escherichia coli, 7 µg/mL (≈ 8.88 µM). Moreover, the HC50 in series [1] came out at 600 µg/mL.

As to `CC(C)(C)c1cc(C(C)(C)C)c2[nH]c(C(C)(C)C)c(C[C@@H](NC(=O)[C@H](N)CCCNC(=N)N)C(=O)N[C@@H](CCCNC(=N)N)C(=O)NCCc3ccccc3)c2c1`, the MIC in the series on Staphylococcus aureus is 4 µg/mL (≈ 5.08 µM); in the series on Pseudomonas aeruginosa, 50 µg/mL (≈ 63.4 µM); in the series on Escherichia coli, 10 µg/mL (≈ 12.7 µM). In addition, in series [1], the HC50 was found to be 605 µg/mL.
